In US20090318396A1, “CORTICOSTEROID LINKED BETA-AGONIST COMPOUNDS FOR USE IN THERAPY” (priority 2008, published 2009):

Experiment: Stability of steroid C-21 esters, carbonates and carbamates in rat lung homogenate
Details: for Mean [Parent] (nM) at 2 hrs, 37° C.: parent compound; for Mean % compound remaining at 2 hrs, 37° C.: 900 nM, n=3
[1] = Inactive (heat-inactivated) rat lung homogenate

Description: Lungs from Fischer 344 rats were obtained fresh by overnight delivery at 4° C. from BioReclamation Inc. (Hicksville, N.Y.). Lungs were weighed and homogenized in a 1:3 w/v ratio with sterile phosphate buffered saline (PBS, 10 mM, pH 7.4) in glass vials on ice. After centrifugation at 3,000×g for 10 min at 4° C. the supernatant was decanted into sterile conical tubes and placed on ice. The total protein content of the supernatant was determined by the bicinchoninic acid (BCA) method (Pierce Biotechnology, Rockford, Ill.), using bovine serum albumin (BSA) as the standard. Lung homogenates were prepared to a final concentration of 1 mg total protein/mL in 10 mM PBS, pH 7.4.
Heat-inactivation was achieved by incubation at 80° C. for 30 min, after which the homogenate was allowed to cool to room temperature, stored overnight at 4° C. The homogenate was used for the assay and standard curve preparations. Before use, each homogenate preparation was equilibrated for 15 min in a 37° C. water bath. […] DMSO (2.7 uL) added to 3 mL of temperature-equilibrated homogenate served as a control. Aliquots (100 uL) of homogenate+compound were added to 400 μL quenching solution consisting of 100% HPLC-grade acetonitrile+500 ng/mL glyburide for the zero time point (n=3 for each time point).
The glyburide served as an internal LC/MS/MS standard. The remainder of each drug+homogenate solution was aliquoted into a 96-well tissue culture plates. After an additional 30 min and 120 min incubation at 37° C., 100 μL aliquots were added to 400 μL quenching solution. Denatured proteins in the quenching solution were separated by centrifugation at 3000×g for 2 min at 4° C., and 160 μL of the supernatants were transferred to new 96-well plate for analysis by LC/MS/MS. Collection plates were covered with plastic film and were kept on ice. For storage, covered plates were and kept stored at −80° C. until further use.
An aliquot of 50 μL of each sample was diluted with 50 μL of water containing internal standard at 4° C. The diluted samples were then centrifuged for 20 minutes at 3000 rpm at 4° C. An aliquot of 20 μL of the solution was injected into the TSQ Ultra Quantum.
LC/MS/MS system. The compounds were separated by HPLC using a HyPurity C18 HPLC column (30×2.1 mm, 5μ) from ThermoHypersil. A Multiplex LX-2 HPLC system (Cohesive Technologies, Franklin, Mass.) with two identical Agilent 1100 series binary pumps (P/N G1312A) were used for elution and separation. Samples were maintained at 4° C. in an HTS Pal autosampler (LEAP Technologies, Carrboro, N.C.) in order to reduce any potential spontaneous hydrolysis of the compounds before injection onto the HPLC. The analytes were eluted using the following mobile phases; Mobile phase A contained 1% acetonitrile in 10 mM ammonium formate aqueous solution with 1% formic acid. Mobile phase B contained 80% acetonitrile in 10 mM ammonium formate with 1% formic acid. The HPLC elution program used to elute the analytes was as follows:
The samples were further analyzed by tandem mass spectrometry using a TSQ Quantum Ultra triple quadrupole mass spectrometer (Thermo Finnigan, San Jose, Calif.) using a selective reaction monitoring (SRM) scan type. The mass spectrometry parameters used were as follows:
Nine-point standard curves for each test compound were prepared and analyzed in heat-inactivated lung homogenate. […] The data expressed in Table 2 represent the mean (n=3) percent remaining compound in both types of homogenate at 2 hours, 37° C.

SMILES | Mean [Parent] (nM) at 2 hrs, 37° C. (Active homogenate) | Mean % compound remaining at 2 hrs, 37° C. (Active rat lung homogenate) | Mean % compound remaining at 2 hrs, 37° C. [1] | Mean [Parent] (nM) at 2 hrs, 37° C. (Inactive homogenate)
CC(CN(C)C)OC(=O)OCC(=O)[C@@]12O[C@H](C3CCCCC3)O[C@@H]1C[C@H]1[C@@H]3CCC4=CC(=O)C=C[C@]4(C)[C@H]3[C@@H](O)C[C@@]12C (stereo partly shown) [Example 28] | 120 nM | 45% | 64% | 147 nM
C[C@]12C=CC(=O)C=C1CC[C@@H]1[C@@H]2[C@@H](O)C[C@@]2(C)[C@H]1C[C@H]1O[C@@H](C3CCCCC3)O[C@]12C(=O)COC(=O)c1cccnc1 [Example 29, Nicotinic acid [[11β,16α]-[[((R)-cyclohexylmethylene)bis(oxy)]-11-hydroxypregna-1,4-diene-3,20-dion-21-yl]]ester] | 2 nM | 1% | 72% | 130 nM
CCN(CC)Cc1cccc(C(=O)OCC(=O)[C@@]23O[C@H](C4CCCCC4)O[C@@H]2C[C@H]2[C@@H]4CCC5=CC(=O)C=C[C@]5(C)[C@H]4[C@@H](O)C[C@@]23C)c1 [Example 31, 3-Diethylaminomethylbenzoic acid [[11β,16α]-[[((R)-cyclohexylmethylene)bis(oxy)]-11-hydroxypregna-1,4-diene-3,20-dion-21-yl]]ester] | 127 nM | 68% | 68% | 127 nM
CCN(CC)CC(=O)OCC(=O)[C@@]12O[C@H](C3CCCCC3)O[C@@H]1C[C@H]1[C@@H]3CCC4=CC(=O)C=C[C@]4(C)[C@H]3[C@@H](O)C[C@@]12C [Example 32, 4-Diethylaminoacetic acid [[11β,16α]-[[((R)-cyclohexylmethylene)bis(oxy)]-11-hydroxypregna-1,4-diene-3,20-dion-21-yl]]ester] | 1 nM | 1% | 61% | 119 nM
C[C@]12C=CC(=O)C=C1CC[C@@H]1[C@@H]2[C@@H](O)C[C@@]2(C)[C@H]1C[C@H]1O[C@@H](C3CCCCC3)O[C@]12C(=O)COC(=O)/C=C/c1cccnc1 [Example 33, 3-(Pyridin-3-yl)acrylic acid [[11β,16a]-[[((R)-cyclohexylmethylene)bis(oxy)]-11-hydroxypregna-1,4-diene-3,20-dion-21-yl]]ester] | 4 nM | 3% | 78% | 124 nM
C[C@]12C=CC(=O)C=C1CC[C@@H]1[C@@H]2[C@@H](O)C[C@@]2(C)[C@H]1C[C@H]1O[C@@H](C3CCCCC3)O[C@]12C(=O)COC(=O)CCc1cccnc1 [Example 34, 3-(Pyridin-3-yl)propionic acid [[11β,16α]-[[((R)-cyclohexylmethylene)bis(oxy)]-11-hydroxypregna-1,4-diene-3,20-dion-21-yl]]ester] | 1 nM | 0% | 73% | 159 nM
CN1CCC[C@H]1C(=O)OCC(=O)[C@@]12O[C@H](C3CCCCC3)O[C@@H]1C[C@H]1[C@@H]3CCC4=CC(=O)C=C[C@]4(C)[C@H]3[C@@H](O)C[C@@]12C [Example 38, (S) 1-Methylpyrrolidinecarboxylic acid [[11β,16α]-[[((R)-cyclohexylmethylene)bis(oxy)]-11-hydroxypregna-1,4-diene-3,20-dion-21-yl]]ester] | 1 nM | 1% | 40% | 71 nM
